Assays:
Jurkat E6-1 cells [1] = assay: In vitro assay of cytokine release from T cells (IL-2 ELISA); assay type: cell-based; conditions: Homo sapiens, Jurkat cells stimulated with PHA 20 µg/ml, 20 hours, secreted IL-2 by ELISA, read-out: Jurkat IL2 IC50
Experimental: In vitro assay of cytokine release from T cells
Jurkat E6-1 cells were obtained from American Type Culture Collection (ATCC) and maintained in complete medium with 10% fetal bovine serum (FBS) at 37°C/5%CO2. Cells were plated in 100 µL of Dubelcco's Modified Eagle Medium (DMEM) with 1% FBS in a 96 well plate at a density of 1x10^6 cells/well and 50 µL of test compound was added. Cells were then stimulated by the addition of 50 µL of phytohemagglutinin (PHA) (final concentration 20 µg/ml) and incubated at 37°C/5%CO2 for 20 hours. On the following day, the supernatants were collected and assayed for IL-2 levels by ELISA according to the manufacturer's protocols. The IC50 value was calculated as the concentration at which 50% of secreted IL-2 in vehicle is inhibited.

Jurkat E6-1 cells [2] = assay: fluorescent calcium flux assay (FLIPR, thapsigargin store depletion); assay type: cell-based; conditions: Homo sapiens, Thapsigargin 10µM, 2mM final calcium concentration, FLIPR Calcium 5 dye, read-out: Ca^2+ flux IC50
Experimental: fluorescent calcium flux assay
Jurkat E6-1 cells were obtained from ATCC (number TIB-152™) and maintained as ATCC recommend; in medium RPMI-1640 with 10% FBS at 37°C and 5% CO2.
Before the assay, Jurkat cells were grown at a density of 2 millions cells/ml in cell culture media (RPMI with 10% FBS) in a T-175 flask at 37°C and 5% CO2. The day of the assay, cells were harvested by centrifugation (5 minutes at 1500 rpm) and the pellet were suspended in Ca^2+ free assay buffer (HBSS w/o Ca^2+ and Mg^2+, 20mM Hepes and 1 mM MgCl2, pH 7.4) at a density of 5 million cells/ml.
Calcium depletion was initiated by the addition to the cell suspension of Thapsigarguin at a final assay concentration of 10µM. 20µl of the cellular suspension containing Thapsigargin (100.000 cells/well) were plated into 384 well plates (corning 3711) and incubated at RT for 15 minutes.
Test compounds were diluted in DMSO 100% to get a 10^-2M stock solution and serial dilutions 1/3 were performed in the same solvent. Then, 20µl of test compounds, diluted 75 times in Ca^2+ free assay buffer, were added to the cells and incubated at RT for 1h.
Once this incubation was completed, 5 µl of dye solution (FLIPR Calcium 5 Express Kit, Molecular Devices), prepared as Molecular Devices recommend, were added into the assay plates followed by an extra incubation period of 1 hour at room temperature. After the second incubation period, assay plates were placed into the FLIPR Tetra from Molecular Devices. Fluorescence was measured at a wavelength of 525nm after the dye excitation at 485nm. The initial baseline was measured during 20 seconds, and then 8µl of a 13mM Calcium solution in assay buffer were added (2mM final calcium concentration) except for basal wells, where assay buffer without calcium was added. At this time, changes in the cellular fluorescent were measured for an extra 80 seconds.
Peak and base line were taken for the calculation of the ratio (Peak/Base Line). Total, basal and compound well ratio values were used to calculate %Inhibition.

| Structure (SMILES) | IC50 (Jurkat E6-1 cells [1]) [nM] | IC50 (Jurkat E6-1 cells [2]) [nM] |
| --- | --- | --- |
| Cn1nc(C(F)(F)F)cc1-c1cc2cc(-c3c(F)cccc3Cl)[nH]c2cn1 | 860 | 640 |
| COc1cc(C)c(-c2cnc3[nH]c(-c4c(F)cccc4Cl)cc3n2)cn1 [Ex. 2, 6-(2-Chloro-6-fluorophenyl)-2-(6-methoxy-4-methylpyridin-3-yl)-5H-pyrrolo[2,3-b]pyrazine] | 100 | 357 |
| Cc1cc(S(=O)(=O)N(C)C)ccc1-c1cnc2[nH]c(-c3c(F)cccc3Cl)cc2n1 [Ex. 8, 4-[6-(2-chloro-6-fluorophenyl)-5H-pyrrolo[2,3-b]pyrazin-2-yl]-N,N,3-trimethylbenzenesulfonamide] | 41 | 800 |
| COc1cc(C)c(-c2cnc3[nH]c(-c4c(F)cc(OCCCO)cc4F)cc3c2)cn1 [Ex. 9, 3-{3,5-difluoro-4-[5-(6-methoxy-4-methylpyridin-3-yl)-1H-pyrrolo[2,3-b]pyridin-2-yl]phenoxy}propan-1-ol] | 210 | 370 |
| Fc1cccc(Cl)c1-c1cc2cc(-c3cc4c(cc3Cl)OC(F)(F)O4)cnc2[nH]1 [Ex. 13, 5-(6-Chloro-2,2-difluoro-1,3-benzodioxol-5-yl)-2-(2-chloro-6-fluorophenyl)-1H-pyrrolo[2,3-b]pyridine] | 56 | 120 |
| Cn1nc(C(F)(F)F)cc1-c1ccc2[nH]c(-c3c(F)cccc3Cl)cc2n1 [Ex. 14, 2-(2-Chloro-6-fluorophenyl)-5-[1-methyl-3-(trifluoromethyl)-1H-pyrazol-5-yl]-1H-pyrrolo[3,2-b]pyridine] | 36 | 53 |
| Cn1nc(C(F)(F)F)cc1-c1ccc2[nH]c(C3CCCCC3)cc2n1 [Ex. 16, 2-Cyclohexyl-5-[1-methyl-3-(trifluoromethyl)-1H-pyrazol-5-yl]-1H-pyrrolo[3,2-b]pyridine] | 130 | 390 |

Second part, the molecule after the results:

| IC50 (Jurkat E6-1 cells [1]) [nM] | IC50 (Jurkat E6-1 cells [2]) [nM] | Structure (SMILES) |
| --- | --- | --- |
| 40 | 71 | COc1cc(C)c(-c2cnc3[nH]c(-c4c(F)cccc4Cl)cc3c2)cn1 [Ex. 1, 2-(2-Chloro-6-fluorophenyl)-5-(6-methoxy-4-methylpyridin-3-yl)-1H-pyrrolo[2,3-b]pyridine] |
| 110 | 360 | FC(F)Oc1cc(C(F)(F)F)nn1-c1ccc2[nH]c(C3CCCCC3)cc2n1 [Ex. 30, 2-Cyclohexyl-5-[5-(difluoromethoxy)-3-(trifluoromethyl)-1H-pyrazol-1-yl]-1H-pyrrolo[3,2-b]pyridine] |
| 114 | 580 | CNS(=O)(=O)c1ccc(-c2cnc3[nH]c(-c4c(F)cccc4Cl)cc3n2)c(C)c1 [Ex. 69, 4-(6-(2-Chloro-6-fluorophenyl)-5H-pyrrolo[2,3-b]pyrazin-2-yl)-N,3-dimethylbenzenesulfonamide] |
| 117 | 88 | Cc1nc2cc(Cl)c(-c3cnc4[nH]c(-c5c(F)cccc5Cl)cc4c3)cc2o1 [Ex. 73, 5-Chloro-6-(2-(2-chloro-6-fluorophenyl)-1H-pyrrolo[2,3-b]pyridin-5-yl)-2-methylbenzo[d]oxazole] |

From patent EP2738172A1 (Almirall, S.A., priority 2012, dated 2014)
